The term IC50 denotes the concentration that gives 50% inhibition.

This note sets out measurements from patent US20190119282A1, “IMIDAZOPYRIDAZINES USEFUL AS INHIBITORS OF THE PAR-2 SIGNALING PATHWAY” (Vertex Pharmaceuticals Incorporated, priority 2013, published 2019).

The test system of test [1] is UTP-stimulated Ca2+ response in HT-29 cells. Kind of test: Ca FLIPR TETRA assay, ANTAGONIST mode, stimulation with 0.6 μM UTP. The note with it: Homo sapiens; HT-29 cells, stimulation with 0.6 μM UTP. Type of test: cell-based, human. In short, it runs like this: (§1)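 Antagonist-mode FLIPR Tetra Ca2+ readout: after 30 min r.t. compound pre-incubation, HT-29 cells are challenged with trypsin (3.1 U/mL final), SLIGKV (8 μM), thrombin (1 U/mL) or UTP (0.6 μM). Cells were plated overnight in 1% FBS medium and dye-loaded with Calcium 5; an initial read checks compound agonism.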

Test [2] concerns Thrombin-stimulated Ca2+ response in HT-29 cells. The test is described as follows: Ca FLIPR TETRA assay, ANTAGONIST mode, stimulation with 1 U/mL Thrombin. The class given is cell-based, human. The note with it: Homo sapiens; HT-29 cells, stimulation with 1 U/mL Thrombin. In short, it runs like this: as §1
Test [3] deals with T1, PAR2 (HT-29 cells, SLIGKV activation) (Homo sapiens, UniProt P55085).
T1 construct: host or cells: HT-29 cells
T1 sequence (P55085 26-397): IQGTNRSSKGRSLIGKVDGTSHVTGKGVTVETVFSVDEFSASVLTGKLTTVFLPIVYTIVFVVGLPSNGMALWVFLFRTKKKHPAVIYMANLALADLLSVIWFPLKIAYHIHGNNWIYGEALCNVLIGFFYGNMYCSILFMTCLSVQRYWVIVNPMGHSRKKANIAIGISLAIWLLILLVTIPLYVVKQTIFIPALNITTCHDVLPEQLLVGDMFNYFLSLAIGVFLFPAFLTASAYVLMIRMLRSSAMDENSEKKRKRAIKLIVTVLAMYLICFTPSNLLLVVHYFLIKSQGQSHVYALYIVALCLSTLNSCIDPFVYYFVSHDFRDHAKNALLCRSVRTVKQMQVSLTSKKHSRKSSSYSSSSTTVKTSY
Kind of test: Ca FLIPR TETRA assay, ANTAGONIST mode, stimulation with 8 μM SLIGKV. The class given is cell-based. The following applies: HT-29 cells, stimulation with 8 μM SLIGKV. In outline:
as §1

Test [4] has as its target T2, PAR2 (HT-29 cells, trypsin activation) (Homo sapiens, UniProt P55085).
T2 construct: host or cells: HT-29 cells
T2 sequence (P55085 26-397): T1 sequence (P55085 26-397)
Kind of test: Ca FLIPR TETRA assay, ANTAGONIST mode, stimulation with 3.1 U/mL trypsin. The class given is cell-based. The following applies: HT-29 cells, stimulation with 3.1 U/mL trypsin. In outline: as §1

Consider `CC(C)c1cc(-c2ccc(F)cc2)nn2cc(C(=O)N3CCN(C(=O)CCN4CCCCC4=O)[C@@H](C)C3)nc12` [Compound I-137], for which the half-maximal inhibitory concentration (IC50) in test [1] was found to be 40 µM; in test [2], 43 µM; in test [3], 0.042 µM; in test [4], 0.24 µM.

For the compound `CC(C)c1cc(-c2ccc(F)cc2)nn2cc(C(=O)N3CCN(C(=O)CCC(F)(F)F)[C@@H](C)C3)nc12` [Compound I-138], the IC50 was more than 5 µM in test [1], more than 5 µM in test [2], 0.011 µM in test [3] and 0.052 µM in test [4].

Turning to `CC(C)CCCC(=O)N1CCN(C(=O)c2cn3nc(-c4ccc(F)cc4)cc(C(C)C)c3n2)C[C@@H]1C` [Compound I-139], the IC50 in test [1] was more than 0.5 µM; in test [2] it was 25 µM; in test [3], 0.002 µM; in test [4], 0.009 µM.

As for `CC(C)c1cc(-c2ccc(F)cc2)nn2cc(C(=O)N3CCN(C(=O)CC4CC4)[C@@H](C)C3)nc12` [Compound I-140], the IC50 stood at 14 µM in test [1], 15 µM in test [2], 0.014 µM in test [3] and 0.25 µM in test [4].

In the case of `CC(C)c1cc(-c2ccc(F)cc2)nn2cc(C(=O)N3CCN(C(=O)CC4CCOCC4)[C@@H](C)C3)nc12` [Compound I-141], the IC50 in test [1] is 24 µM; in test [2], 19 µM; in test [3], 0.016 µM; in test [4], 0.13 µM.

`CC(C)c1cc(-c2ccc(F)cc2)nn2cc(C(=O)N3CCN(C(=O)Cc4cccnc4)[C@@H](C)C3)nc12` [Compound I-142]: the IC50 in test [1] came out at 24 µM; in test [2], 26 µM; in test [3], 0.035 µM; in test [4], 0.28 µM.

On to `CCOCCC(=O)N1CCN(C(=O)c2cn3nc(-c4ccc(F)cc4)cc(C(C)C)c3n2)C[C@@H]1C` [Compound I-143], for which the concentration for half-maximal inhibition (IC50) turned out to be 21 µM in test [1], 22 µM in test [2], 0.041 µM in test [3] and 0.29 µM in test [4].

Turning to `CC(C)c1cc(-c2ccc(F)cc2)nn2cc(C(=O)N3CCN(C(=O)CCC4CCC4)[C@@H](C)C3)nc12` [Compound I-144], the IC50 in test [1] is 5.2 µM; in test [2] it was 6.6 µM; in test [3] it was 0.002 µM; in test [4] it was 0.005 µM.

Turning to `CC(C)c1cc(-c2ccc(F)cc2)nn2cc(C(=O)N3CCN(C(=O)CC4CCOC4)[C@@H](C)C3)nc12` (stereo partly shown) [Compound I-145], the concentration for half-maximal inhibition (IC50) came out at 23 µM in test [1], 24 µM in test [2], 0.072 µM in test [3] and 0.33 µM in test [4].

As for `CCC(C)(O)CC(=O)N1CCN(C(=O)c2cn3nc(-c4ccc(F)cc4)cc(C(C)C)c3n2)C[C@@H]1C` (stereo partly shown) [Compound I-146], the 50% inhibitory concentration (IC50) in test [1] was determined as 19 µM; in test [2] it was 20 µM; in test [3], 0.016 µM; in test [4] it was 1 µM.

For the compound `CCCCC(=O)N1CCN(C(=O)c2cn3nc(-c4ccc(F)cc4)cc(C(C)C)c3n2)C[C@@H]1C` [Compound I-147], the half-maximal inhibitory concentration (IC50) in test [1] came to 6.6 µM; in test [2], 8 µM; in test [3], 0.006 µM; in test [4], 0.061 µM.

With `CC(C)c1cc(-c2ccc(F)cc2)nn2cc(C(=O)N3CCN(C(=O)C4(NC(=O)OC(C)(C)C)CC4)[C@@H](C)C3)nc12` [Compound I-148], the 50% inhibitory concentration (IC50) is 39 µM in test [1], more than 50 µM in test [2], 0.052 µM in test [3] and 0.096 µM in test [4].

Consider `CC(C)c1cc(-c2ccc(F)cc2)nn2cc(C(=O)N3CCN(C(=O)C4(NC(=O)OC(C)(C)C)CCC4)[C@@H](C)C3)nc12` [Compound I-149], for which the half-maximal inhibitory concentration (IC50) in test [1] is more than 50 µM; in test [2], more than 50 µM; in test [3], 0.03 µM; in test [4] it was 0.057 µM.

For the compound `CC(C)c1cc(-c2ccc(F)cc2)nn2cc(C(=O)N3CCN(C(=O)C4(NC(=O)OC(C)(C)C)CCCCC4)[C@@H](C)C3)nc12` [Compound I-150], the concentration for half-maximal inhibition (IC50) in test [1] was 84 µM; in test [2] it was more than 50 µM; in test [3], 0.074 µM; in test [4], 0.23 µM.

As to `CC(C)c1cc(-c2ccc(F)cc2)nn2cc(C(=O)N3CCN(C(=O)C(C)(C)NC(=O)OCc4ccccc4)[C@@H](C)C3)nc12` [Compound I-151], the 50% inhibitory concentration (IC50) is more than 50 µM in test [1], more than 50 µM in test [2], 0.063 µM in test [3] and 0.16 µM in test [4].

With `CC(C)c1cc(-c2ccc(F)cc2)nn2cc(C(=O)N3CCN(C(=O)[C@H](O)C(C)(C)C)[C@@H](C)C3)nc12` [Compound I-152], the half-maximal inhibitory concentration (IC50) in test [1] was 10 µM; in test [2], 13 µM; in test [3], 0.004 µM; in test [4], 0.054 µM.

In the case of `Cc1cc(-c2ccc(F)cc2)nn2cc(C(=O)N3CCN(C(=O)[C@H](O)C(C)(C)C)[C@@H](C)C3)nc12` [Compound I-153], the IC50 was 22 µM in test [1], 19 µM in test [2], 0.25 µM in test [3] and 1.45 µM in test [4].

Regarding `CC(C)c1cc(-c2ccc(F)cc2)nn2cc(C(=O)N3CCN(C(=O)C4(N)CC4)[C@@H](C)C3)nc12` [Compound I-154], the IC50 was more than 50 µM in test [1], more than 50 µM in test [2], 1.4 µM in test [3] and 6.4 µM in test [4].

As to `CC(C)c1cc(-c2ccc(F)cc2)nn2cc(C(=O)N3CCN(C(=O)C4(N)CCC4)[C@@H](C)C3)nc12` [Compound I-155], the IC50 amounted to 25 µM in test [1], 27 µM in test [2], 0.8 µM in test [3] and 3.5 µM in test [4].

As for `CC(C)c1cc(-c2ccc(F)cc2)nn2cc(C(=O)N3CCN(C(=O)C4(N)CCCCC4)[C@@H](C)C3)nc12` [Compound I-156], the 50% inhibitory concentration (IC50) in test [1] amounted to 17 µM; in test [2], 21 µM; in test [3], 1.4 µM; in test [4] it was 6.8 µM.

Turning to `CC(C)c1cc(-c2ccc(F)cc2)nn2cc(C(=O)N3CCN(C(=O)C(C)(C)N)[C@@H](C)C3)nc12` [Compound I-157], the IC50 in test [1] turned out to be 38 µM; in test [2], 40 µM; in test [3], 5.7 µM; in test [4], 14 µM.

As for `Cc1cc(-c2ccc(F)cc2)nn2cc(C(=O)N3CCN(C(=O)C(C)(C)O)[C@@H](C)C3)nc12` [Compound I-158], the IC50 was found to be 67 µM in test [1], 77 µM in test [2], 9.1 µM in test [3] and 26 µM in test [4].

Take `Cc1cc(-c2ccc(F)cc2)nn2cc(C(=O)N3CCN(C(=O)C4(O)CCC4)[C@@H](C)C3)nc12` [Compound I-159]: the IC50 in test [1] came out at 36 µM; in test [2], 42 µM; in test [3] it was 7.3 µM; in test [4], 17 µM.

On to `C=CC(=O)N1CCN(C(=O)c2cn3nc(-c4ccc(F)cc4)cc(C(C)C)c3n2)C(C)(C)C1` [Compound I-160], for which the IC50 is 14 µM in test [1], 7.9 µM in test [2], 0.01 µM in test [3] and 0.041 µM in test [4].

With `CCc1cc(-c2ccc(F)cc2)nn2cc(C(=O)N3CCN(C(=O)C(C)(C)O)CC3(C)C)nc12` [Compound I-161], the IC50 in test [1] amounted to 72 µM; in test [2], 140 µM; in test [3], 0.2 µM; in test [4] it was 0.33 µM.

On to `CCc1cc(-c2ccc(F)cc2)nn2cc(C(=O)N3CCN(C(=O)C4(O)CCC4)CC3(C)C)nc12` [Compound I-162], for which the concentration for half-maximal inhibition (IC50) turned out to be 35 µM in test [1], 35 µM in test [2], 0.11 µM in test [3] and 0.16 µM in test [4].

With `CCc1cc(-c2ccc(F)cc2)nn2cc(C(=O)N3CCN(C(=O)Cc4ccncc4)[C@@H](C)C3)nc12` [Compound I-163], the IC50 is 13 µM in test [1], 12 µM in test [2], 0.64 µM in test [3] and 1.7 µM in test [4].

In the case of `CCc1cc(-c2ccc(F)cc2)nn2cc(C(=O)N3CCN(C(=O)CC4CCOCC4)[C@@H](C)C3)nc12` [Compound I-164], the IC50 in test [1] was 54 µM; in test [2], 54 µM; in test [3] it was 0.2 µM; in test [4], 2 µM.

As to `CCc1cc(-c2ccc(F)cc2)nn2cc(C(=O)N3CCN(C(=O)[C@H](O)CC(C)(C)C)CC3(C)C)nc12` [Compound I-165], the IC50 in test [1] worked out at 8 µM; in test [2], 7.4 µM; in test [3] it was 0.001 µM; in test [4], 0.002 µM.

`CCc1cc(-c2ccc(F)cc2)nn2cc(C(=O)N3CCN(C(=O)[C@H](O)C(C)C)CC3(C)C)nc12` [Compound I-166]: the IC50 in test [1] turned out to be 27 µM; in test [2] it was 23 µM; in test [3] it was 0.016 µM; in test [4], 0.053 µM.

Take `CCc1cc(-c2ccc(F)cc2)nn2cc(C(=O)N3CCN(C(=O)[C@H](O)CC(C)C)CC3(C)C)nc12` [Compound I-167]: the half-maximal inhibitory concentration (IC50) in test [1] was 9.6 µM; in test [2], 8.5 µM; in test [3] it was 0.002 µM; in test [4], 0.002 µM.
